The source of these data is ChEMBL document CHEMBL4507276 (2021).

The subject of experiment [1] is Serine/threonine-protein kinase B-raf (Homo sapiens), P15056 [V600E]. As to conditions: Compound concentration 1000.0 nM.
In experiment [2] the target is Phosphatidylinositol 4,5-bisphosphate 3-kinase catalytic subunit gamma isoform (Homo sapiens) (UniProt P48736). As to conditions: Compound concentration 1000.0 nM.
The target in experiment [3] is T1, 5-hydroxytryptamine receptor 3A (Homo sapiens) (UniProt P46098).
T1 sequence (whole entry): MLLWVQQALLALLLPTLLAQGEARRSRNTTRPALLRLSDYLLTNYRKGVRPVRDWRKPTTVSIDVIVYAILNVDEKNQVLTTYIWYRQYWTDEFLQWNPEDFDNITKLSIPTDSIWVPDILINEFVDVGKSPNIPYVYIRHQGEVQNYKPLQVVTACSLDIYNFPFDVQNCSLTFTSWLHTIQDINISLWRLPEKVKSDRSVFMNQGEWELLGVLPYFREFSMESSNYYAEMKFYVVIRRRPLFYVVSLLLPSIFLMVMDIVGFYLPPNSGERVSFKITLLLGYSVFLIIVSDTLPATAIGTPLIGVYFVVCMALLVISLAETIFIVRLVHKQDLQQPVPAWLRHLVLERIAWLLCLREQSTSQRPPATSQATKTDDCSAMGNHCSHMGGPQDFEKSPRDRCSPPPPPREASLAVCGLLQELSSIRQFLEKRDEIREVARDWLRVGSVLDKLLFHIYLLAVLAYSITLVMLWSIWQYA
As to conditions: Compound concentration 10.0 uM.

In experiment [4] the target is T2, Ephrin type-A receptor 1 (Homo sapiens) (UniProt P21709).
T2 sequence (whole entry): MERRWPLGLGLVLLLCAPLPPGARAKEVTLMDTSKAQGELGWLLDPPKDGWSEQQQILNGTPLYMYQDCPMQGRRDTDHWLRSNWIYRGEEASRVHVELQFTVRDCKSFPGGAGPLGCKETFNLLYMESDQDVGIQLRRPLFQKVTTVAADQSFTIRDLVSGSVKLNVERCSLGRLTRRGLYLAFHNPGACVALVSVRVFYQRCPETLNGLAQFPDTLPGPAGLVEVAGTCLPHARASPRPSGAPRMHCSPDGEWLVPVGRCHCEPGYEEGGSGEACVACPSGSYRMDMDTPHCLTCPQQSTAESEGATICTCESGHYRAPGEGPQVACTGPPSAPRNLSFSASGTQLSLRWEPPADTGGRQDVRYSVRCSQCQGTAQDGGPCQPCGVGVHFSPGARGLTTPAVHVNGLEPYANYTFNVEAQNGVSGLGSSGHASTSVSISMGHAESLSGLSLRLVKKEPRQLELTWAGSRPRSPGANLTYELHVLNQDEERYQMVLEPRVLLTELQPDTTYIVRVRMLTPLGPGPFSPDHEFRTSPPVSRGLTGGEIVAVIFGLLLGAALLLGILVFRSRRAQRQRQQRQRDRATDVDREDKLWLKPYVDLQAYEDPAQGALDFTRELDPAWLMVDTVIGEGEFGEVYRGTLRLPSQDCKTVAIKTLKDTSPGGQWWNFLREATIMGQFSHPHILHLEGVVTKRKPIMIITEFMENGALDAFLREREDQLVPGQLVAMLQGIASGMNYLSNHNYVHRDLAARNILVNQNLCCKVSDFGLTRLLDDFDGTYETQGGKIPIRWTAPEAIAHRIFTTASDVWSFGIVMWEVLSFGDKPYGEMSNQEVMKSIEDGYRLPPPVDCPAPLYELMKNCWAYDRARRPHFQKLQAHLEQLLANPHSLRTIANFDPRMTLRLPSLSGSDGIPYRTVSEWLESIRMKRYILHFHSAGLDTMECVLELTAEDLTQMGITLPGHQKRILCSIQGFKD
The note with it: Compound concentration 1000.0 nM.

The target of experiment [5] is Rho-associated protein kinase 1 (Homo sapiens) (UniProt Q13464). As to conditions: Compound concentration 1000.0 nM.
Experiment [6] deals with 5'-AMP-activated protein kinase catalytic subunit alpha-1 (Homo sapiens) (UniProt Q13131). The note with it: Compound concentration 1000.0 nM.
For experiment [7], the target named is Serine/threonine-protein kinase pim-3 (Homo sapiens) (UniProt Q86V86). As to conditions: Compound concentration 1000.0 nM.
In experiment [8] the target is Phosphorylase b kinase regulatory subunit alpha, liver isoform (Homo sapiens) (UniProt P46019). The note with it: Compound concentration 1000.0 nM.
The target of experiment [9] is Tyrosine-protein kinase Lyn (Homo sapiens) (UniProt P07948). As to conditions: Compound concentration 1000.0 nM.
Experiment [10] deals with T3, Rhodopsin kinase GRK7 (Homo sapiens) (UniProt Q8WTQ7).
T3 sequence (whole entry): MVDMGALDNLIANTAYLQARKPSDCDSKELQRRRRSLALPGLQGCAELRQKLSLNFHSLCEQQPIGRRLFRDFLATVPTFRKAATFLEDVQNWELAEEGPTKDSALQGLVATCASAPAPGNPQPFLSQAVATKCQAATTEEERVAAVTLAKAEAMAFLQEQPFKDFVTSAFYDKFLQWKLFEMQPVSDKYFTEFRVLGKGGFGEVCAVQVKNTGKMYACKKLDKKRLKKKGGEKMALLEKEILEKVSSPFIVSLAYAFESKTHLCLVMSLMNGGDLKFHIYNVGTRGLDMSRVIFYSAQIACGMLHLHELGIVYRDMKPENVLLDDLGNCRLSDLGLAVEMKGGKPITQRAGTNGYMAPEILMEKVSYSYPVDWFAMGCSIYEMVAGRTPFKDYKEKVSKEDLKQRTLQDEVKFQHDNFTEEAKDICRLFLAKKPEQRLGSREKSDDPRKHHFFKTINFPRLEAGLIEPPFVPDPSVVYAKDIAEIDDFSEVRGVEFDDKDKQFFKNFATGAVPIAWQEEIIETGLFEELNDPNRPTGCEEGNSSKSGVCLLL
The note with it: Compound concentration 1000.0 nM.

The target of experiment [11] is Aurora kinase B (Homo sapiens) (UniProt Q96GD4). The note with it: Compound concentration 1000.0 nM.
The target in experiment [12] is Maternal embryonic leucine zipper kinase (Homo sapiens) (UniProt Q14680). As to conditions: Compound concentration 1000.0 nM.
Experiment [13] concerns the target Serine/threonine-protein kinase PLK2 (Homo sapiens) (UniProt Q9NYY3). As to conditions: Compound concentration 1000.0 nM.
Experiment [14] deals with High affinity nerve growth factor receptor (Homo sapiens) (UniProt P04629). The note with it: Compound concentration 1000.0 nM.
Experiment [15] has as its target Vascular endothelial growth factor receptor 1 (Homo sapiens) (UniProt P17948). The note with it: Compound concentration 1000.0 nM.
The target in experiment [16] is Cyclin-dependent kinase 15 (Homo sapiens) (UniProt Q96Q40). The note with it: Compound concentration 1000.0 nM.
For experiment [17], the target named is Serine/threonine-protein kinase PRP4 homolog (Homo sapiens) (UniProt Q13523). As to conditions: Compound concentration 1000.0 nM.
Experiment [18] deals with Serine/threonine-protein kinase SBK1 (Homo sapiens) (UniProt Q52WX2). The note with it: Compound concentration 1000.0 nM.

Sequence of Serine/threonine-protein kinase PLK2 (Homo sapiens) (Q9NYY3 whole entry, looked up): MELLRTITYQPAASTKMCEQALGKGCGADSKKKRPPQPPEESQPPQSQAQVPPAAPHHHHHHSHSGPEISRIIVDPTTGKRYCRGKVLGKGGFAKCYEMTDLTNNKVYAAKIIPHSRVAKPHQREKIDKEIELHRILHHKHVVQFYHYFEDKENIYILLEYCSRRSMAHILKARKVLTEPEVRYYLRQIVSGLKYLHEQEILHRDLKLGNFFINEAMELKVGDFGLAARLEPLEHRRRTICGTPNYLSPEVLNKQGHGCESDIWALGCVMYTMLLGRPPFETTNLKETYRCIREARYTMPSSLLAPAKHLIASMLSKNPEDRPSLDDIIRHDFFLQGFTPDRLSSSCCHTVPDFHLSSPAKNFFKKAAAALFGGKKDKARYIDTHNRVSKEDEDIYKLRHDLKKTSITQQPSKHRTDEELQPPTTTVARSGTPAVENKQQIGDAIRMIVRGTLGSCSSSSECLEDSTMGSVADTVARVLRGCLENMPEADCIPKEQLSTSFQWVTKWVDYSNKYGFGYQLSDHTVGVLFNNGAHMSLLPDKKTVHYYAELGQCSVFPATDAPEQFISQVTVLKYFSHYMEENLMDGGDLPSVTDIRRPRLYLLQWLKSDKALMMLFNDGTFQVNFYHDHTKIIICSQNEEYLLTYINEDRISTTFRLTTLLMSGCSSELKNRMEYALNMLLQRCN
Sequence of 5'-AMP-activated protein kinase catalytic subunit alpha-1 (Homo sapiens) (Q13131 whole entry, looked up): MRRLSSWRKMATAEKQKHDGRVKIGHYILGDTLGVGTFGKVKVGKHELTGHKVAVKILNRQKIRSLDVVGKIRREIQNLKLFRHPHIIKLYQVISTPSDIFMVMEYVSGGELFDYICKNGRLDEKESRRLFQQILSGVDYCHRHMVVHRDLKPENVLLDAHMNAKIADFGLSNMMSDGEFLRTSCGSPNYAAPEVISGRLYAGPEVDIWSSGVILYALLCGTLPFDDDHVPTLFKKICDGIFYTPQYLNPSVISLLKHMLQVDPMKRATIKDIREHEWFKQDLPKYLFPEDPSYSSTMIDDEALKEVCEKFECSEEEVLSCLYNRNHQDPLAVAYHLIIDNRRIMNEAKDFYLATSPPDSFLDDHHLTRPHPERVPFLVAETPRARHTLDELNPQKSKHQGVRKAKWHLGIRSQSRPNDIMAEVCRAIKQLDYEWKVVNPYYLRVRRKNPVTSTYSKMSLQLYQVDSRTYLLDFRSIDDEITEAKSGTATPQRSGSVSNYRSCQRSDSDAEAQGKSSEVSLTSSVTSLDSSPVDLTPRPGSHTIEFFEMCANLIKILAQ
Sequence of High affinity nerve growth factor receptor (Homo sapiens) (P04629 33-796 limits assumed): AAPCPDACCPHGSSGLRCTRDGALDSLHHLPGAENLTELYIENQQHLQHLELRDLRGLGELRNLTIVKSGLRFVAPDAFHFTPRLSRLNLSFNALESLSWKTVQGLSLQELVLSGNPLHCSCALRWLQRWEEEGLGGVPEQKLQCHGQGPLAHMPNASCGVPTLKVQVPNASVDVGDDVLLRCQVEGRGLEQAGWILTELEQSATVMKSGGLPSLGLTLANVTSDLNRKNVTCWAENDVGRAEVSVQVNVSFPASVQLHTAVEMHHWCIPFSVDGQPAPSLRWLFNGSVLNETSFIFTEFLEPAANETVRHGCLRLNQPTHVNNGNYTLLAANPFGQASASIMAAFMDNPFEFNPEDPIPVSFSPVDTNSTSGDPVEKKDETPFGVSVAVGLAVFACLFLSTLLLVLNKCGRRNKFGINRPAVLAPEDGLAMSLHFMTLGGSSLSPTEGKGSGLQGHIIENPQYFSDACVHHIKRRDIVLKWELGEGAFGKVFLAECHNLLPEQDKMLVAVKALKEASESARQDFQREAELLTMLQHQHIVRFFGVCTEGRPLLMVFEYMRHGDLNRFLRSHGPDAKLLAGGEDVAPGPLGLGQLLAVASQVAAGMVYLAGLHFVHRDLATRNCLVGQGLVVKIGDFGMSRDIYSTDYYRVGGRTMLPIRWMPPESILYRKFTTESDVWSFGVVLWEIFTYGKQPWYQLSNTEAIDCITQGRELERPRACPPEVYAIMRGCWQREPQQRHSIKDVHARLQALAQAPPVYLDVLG
Sequence of Rho-associated protein kinase 1 (Homo sapiens) (Q13464 2-1354 limits assumed): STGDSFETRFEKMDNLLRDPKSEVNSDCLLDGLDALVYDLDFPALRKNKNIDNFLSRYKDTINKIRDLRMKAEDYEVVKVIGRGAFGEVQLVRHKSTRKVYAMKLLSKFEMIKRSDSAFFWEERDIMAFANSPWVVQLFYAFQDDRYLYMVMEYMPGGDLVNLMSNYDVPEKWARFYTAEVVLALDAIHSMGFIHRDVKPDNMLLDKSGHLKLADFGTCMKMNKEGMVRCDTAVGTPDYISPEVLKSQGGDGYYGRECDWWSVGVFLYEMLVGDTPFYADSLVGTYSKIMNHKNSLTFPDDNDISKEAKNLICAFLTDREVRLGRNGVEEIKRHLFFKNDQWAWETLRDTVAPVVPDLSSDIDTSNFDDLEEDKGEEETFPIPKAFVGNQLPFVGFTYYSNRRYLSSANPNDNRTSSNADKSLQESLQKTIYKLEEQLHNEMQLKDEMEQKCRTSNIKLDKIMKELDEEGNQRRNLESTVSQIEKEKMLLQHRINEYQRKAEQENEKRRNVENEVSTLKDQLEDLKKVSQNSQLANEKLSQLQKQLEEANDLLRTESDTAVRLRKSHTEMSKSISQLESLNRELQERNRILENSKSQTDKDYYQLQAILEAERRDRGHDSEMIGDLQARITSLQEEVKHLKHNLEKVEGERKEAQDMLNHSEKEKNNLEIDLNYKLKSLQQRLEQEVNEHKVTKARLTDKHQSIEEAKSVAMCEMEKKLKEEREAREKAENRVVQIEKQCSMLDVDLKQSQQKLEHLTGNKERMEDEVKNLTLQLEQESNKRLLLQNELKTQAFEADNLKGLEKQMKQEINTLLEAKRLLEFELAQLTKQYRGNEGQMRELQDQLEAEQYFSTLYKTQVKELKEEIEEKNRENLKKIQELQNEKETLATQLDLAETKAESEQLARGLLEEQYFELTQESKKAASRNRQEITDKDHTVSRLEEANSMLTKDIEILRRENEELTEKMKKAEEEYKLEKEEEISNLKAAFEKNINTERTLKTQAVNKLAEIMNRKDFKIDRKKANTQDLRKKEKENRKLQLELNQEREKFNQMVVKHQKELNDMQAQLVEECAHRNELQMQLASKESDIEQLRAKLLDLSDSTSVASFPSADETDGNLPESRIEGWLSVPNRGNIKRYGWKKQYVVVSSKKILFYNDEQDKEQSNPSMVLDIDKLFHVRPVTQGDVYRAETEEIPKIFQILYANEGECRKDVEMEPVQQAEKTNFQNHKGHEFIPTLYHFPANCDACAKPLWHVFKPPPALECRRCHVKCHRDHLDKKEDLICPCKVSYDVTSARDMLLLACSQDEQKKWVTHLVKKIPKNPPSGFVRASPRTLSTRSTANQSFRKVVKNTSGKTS
Sequence of Maternal embryonic leucine zipper kinase (Homo sapiens) (Q14680 whole entry, looked up): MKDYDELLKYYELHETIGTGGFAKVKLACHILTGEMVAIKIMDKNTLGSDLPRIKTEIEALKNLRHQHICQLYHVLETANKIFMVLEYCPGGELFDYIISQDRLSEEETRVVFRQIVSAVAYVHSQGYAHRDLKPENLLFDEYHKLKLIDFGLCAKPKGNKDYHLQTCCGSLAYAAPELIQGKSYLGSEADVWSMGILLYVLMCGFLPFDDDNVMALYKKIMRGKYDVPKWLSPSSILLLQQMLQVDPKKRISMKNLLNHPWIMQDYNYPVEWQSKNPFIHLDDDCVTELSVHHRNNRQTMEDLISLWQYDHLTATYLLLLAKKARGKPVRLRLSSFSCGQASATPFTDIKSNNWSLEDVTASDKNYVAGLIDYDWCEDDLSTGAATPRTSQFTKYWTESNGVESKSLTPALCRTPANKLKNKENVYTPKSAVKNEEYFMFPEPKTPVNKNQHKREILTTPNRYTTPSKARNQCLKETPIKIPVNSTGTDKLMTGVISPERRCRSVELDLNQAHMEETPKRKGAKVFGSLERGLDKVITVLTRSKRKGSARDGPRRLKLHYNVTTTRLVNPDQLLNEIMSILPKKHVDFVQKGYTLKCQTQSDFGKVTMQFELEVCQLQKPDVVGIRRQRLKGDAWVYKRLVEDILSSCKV
Sequence of Tyrosine-protein kinase Lyn (Homo sapiens) (P07948 2-512 limits assumed): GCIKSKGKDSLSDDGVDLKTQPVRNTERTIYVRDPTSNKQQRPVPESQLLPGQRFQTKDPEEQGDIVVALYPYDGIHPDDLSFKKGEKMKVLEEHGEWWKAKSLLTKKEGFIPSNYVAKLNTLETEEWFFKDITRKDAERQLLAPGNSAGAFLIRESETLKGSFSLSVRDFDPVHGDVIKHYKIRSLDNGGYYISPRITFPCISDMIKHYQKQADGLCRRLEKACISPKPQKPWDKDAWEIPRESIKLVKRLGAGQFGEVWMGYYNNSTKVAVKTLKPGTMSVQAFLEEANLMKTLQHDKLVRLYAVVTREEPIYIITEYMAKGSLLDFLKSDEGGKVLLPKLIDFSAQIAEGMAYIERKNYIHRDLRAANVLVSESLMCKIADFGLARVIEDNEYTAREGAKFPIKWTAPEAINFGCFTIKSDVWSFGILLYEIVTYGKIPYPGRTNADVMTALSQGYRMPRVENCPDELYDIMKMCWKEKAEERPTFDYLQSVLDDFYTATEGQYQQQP
Sequence of Aurora kinase B (Homo sapiens) (Q96GD4 whole entry): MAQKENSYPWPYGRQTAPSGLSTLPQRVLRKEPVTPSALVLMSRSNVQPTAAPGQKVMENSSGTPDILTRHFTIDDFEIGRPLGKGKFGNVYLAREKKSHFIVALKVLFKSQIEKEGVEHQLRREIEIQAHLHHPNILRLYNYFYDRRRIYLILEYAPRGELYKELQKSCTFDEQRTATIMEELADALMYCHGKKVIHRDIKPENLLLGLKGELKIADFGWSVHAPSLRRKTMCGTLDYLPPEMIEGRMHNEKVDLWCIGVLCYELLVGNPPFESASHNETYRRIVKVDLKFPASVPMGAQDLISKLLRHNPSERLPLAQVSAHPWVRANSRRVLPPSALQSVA

One may read the inhibition as the relative decrease from the control value, in per cent. As to `CN(C)C(=O)Cn1cc(-c2nc(C3(c4ccc(-c5cnc(N)nc5)cc4)CC3)no2)cn1` [BI 0153], the residual activity in experiment [1] is 87%; in [2], 85%; in experiment [4], 100%; in experiment [5] it was 83%; in experiment [6] it was 98%; in [7], 100%. Also, the residual activity is 91% in experiment [8]; 79% in [9]; 84% in experiment [10]; 41% in experiment [11]; 92% in [12]; 93% in experiment [13]. Further, the residual activity is 100% in experiment [14]; 100% in experiment [15]; 100% in experiment [16]; 87% in experiment [17]; 83% in experiment [18]. In addition, the inhibition in experiment [3] was -8.52%.
On to `CN(C)C(=O)Cn1cc(-c2nc([C@@](C)(c3ccc(-c4cnc(N)nc4)cc3)C3CC3)no2)cn1` [BI 665915], for which the residual activity in experiment [1] is 89%; in [2], 72%; in [4], 97%; in experiment [5], 97%; in experiment [6] it was 95%; in [7] it was 96%. Further, the residual activity was 80% in experiment [8]; 87% in [9]; 0% in experiment [10]; 96% in experiment [11]; 87% in experiment [12]; 56% in [13]. In addition, the residual activity is 70% in experiment [14]; 100% in [15]; 94% in [16]; 86% in [17]; 87% in experiment [18]. In [3], the inhibition is -2.76%.
